Data taken from the supplement of paper PMC11424490.

Legend:
Assay in all cases: combination cScore with adagrasib (Bliss gap around IC50) (%PoC); higher = stronger additive effect
NCI-H2122 = system: NCI-H2122
Summary of the method: (§1)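 Scores represent the average Bliss-independence gap, expected minus measured viability, in a field surrounding both monotherapy IC50s, with the top concentrations used when no IC50 was reached. Cells (NCI-H2122, NCI-H358, SW837) were seeded at 500 or 800 per well in 384-well plates, dosed in matrices at 24 h and grown for 72 h, with SW837 grown for 144 h. Viability was measured by CellTiter-Glo, normalised to vehicle wells and fitted with four-parameter curves.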

NCI-H358 = system: NCI-H358
Summary of the method: as §1

SW837 = system: SW837
Summary of the method: as §1

Compound: O=P1(N(CCCl)CCCl)NCCCO1 (stereo not drawn) [Cyclophosphamide] + C=C(F)C(=O)N1CCN(c2nc(OC[C@@H]3CCCN3C)nc3c2CCN(c2cccc4cccc(Cl)c24)C3)C[C@@H]1CC#N [adagrasib]
- combination cScore with adagrasib (NCI-H2122): -0.77
- combination cScore with adagrasib (NCI-H358): -0.63
- combination cScore with adagrasib (SW837): -0.5

Compound: O=C(C1CC1)N1CC[C@@H](Cn2c(-c3ccc(-c4ccc5occc5c4)cc3)nc3cnccc32)C1 + C=C(F)C(=O)N1CCN(c2nc(OC[C@@H]3CCCN3C)nc3c2CCN(c2cccc4cccc(Cl)c24)C3)C[C@@H]1CC#N [adagrasib]
- combination cScore with adagrasib (NCI-H2122): 7.98
- combination cScore with adagrasib (NCI-H358): 7.72
- combination cScore with adagrasib (SW837): 7.68

Compound: CCCc1cc(C)[nH]c(=O)c1CNC(=O)c1cc(-c2ccnc(N3CCN(C)CC3)c2)cc2c1cnn2C(C)C [GSK343] + C=C(F)C(=O)N1CCN(c2nc(OC[C@@H]3CCCN3C)nc3c2CCN(c2cccc4cccc(Cl)c24)C3)C[C@@H]1CC#N [adagrasib]
- combination cScore with adagrasib (NCI-H2122): 15.8
- combination cScore with adagrasib (NCI-H358): 4.64
- combination cScore with adagrasib (SW837): -0.82

Compound: O=C(c1cc(Cc2n[nH]c(=O)c3ccccc23)ccc1F)N1CCN(C(=O)C2CC2)CC1 [Olaparib] + C=C(F)C(=O)N1CCN(c2nc(OC[C@@H]3CCCN3C)nc3c2CCN(c2cccc4cccc(Cl)c24)C3)C[C@@H]1CC#N [adagrasib]
- combination cScore with adagrasib (NCI-H2122): 5.71
- combination cScore with adagrasib (NCI-H358): 1.38
- combination cScore with adagrasib (SW837): 2.95

Compound: Cc1nc(NC(=O)N2CCC[C@H]2C(N)=O)sc1-c1ccnc(C(C)(C)C(F)(F)F)c1 [BYL-719] + C=C(F)C(=O)N1CCN(c2nc(OC[C@@H]3CCCN3C)nc3c2CCN(c2cccc4cccc(Cl)c24)C3)C[C@@H]1CC#N [adagrasib]
- combination cScore with adagrasib (NCI-H2122): 14.3
- combination cScore with adagrasib (NCI-H358): 3.99
- combination cScore with adagrasib (SW837): 17

Compound: CC(C)n1nc(-c2ccc3oc(N)nc3c2)c2c(N)ncnc21 [MLN-0128] + C=C(F)C(=O)N1CCN(c2nc(OC[C@@H]3CCCN3C)nc3c2CCN(c2cccc4cccc(Cl)c24)C3)C[C@@H]1CC#N [adagrasib]
- combination cScore with adagrasib (NCI-H2122): 7.57
- combination cScore with adagrasib (NCI-H358): 0.5
- combination cScore with adagrasib (SW837): 9.3

Compound: Cc1ccc(C(=O)Nc2ccc(CN3CCN(C)CC3)c(C(F)(F)F)c2)cc1C#Cc1cnc2cccnn12 [Ponatinib] + C=C(F)C(=O)N1CCN(c2nc(OC[C@@H]3CCCN3C)nc3c2CCN(c2cccc4cccc(Cl)c24)C3)C[C@@H]1CC#N [adagrasib]
- combination cScore with adagrasib (NCI-H2122): 14.4
- combination cScore with adagrasib (NCI-H358): 3.62
- combination cScore with adagrasib (SW837): -0.53

Compound: Cc1c(CN2CCC(Nc3ncnc4sc(CC(F)(F)F)cc34)CC2)ccc2[nH]c(C#N)cc12 [MI-463] + C=C(F)C(=O)N1CCN(c2nc(OC[C@@H]3CCCN3C)nc3c2CCN(c2cccc4cccc(Cl)c24)C3)C[C@@H]1CC#N [adagrasib]
- combination cScore with adagrasib (NCI-H2122): 19.7
- combination cScore with adagrasib (NCI-H358): 5.31
- combination cScore with adagrasib (SW837): 0.27

Compound: COc1cc2nc(C)nc(N[C@H](C)c3cc(N)cc(C(F)(F)F)c3)c2cc1O[C@H]1CCOC1 [BI-3406 (SOSi)] + C=C(F)C(=O)N1CCN(c2nc(OC[C@@H]3CCCN3C)nc3c2CCN(c2cccc4cccc(Cl)c24)C3)C[C@@H]1CC#N [adagrasib]
- combination cScore with adagrasib (NCI-H2122): 28
- combination cScore with adagrasib (NCI-H358): 10.7
- combination cScore with adagrasib (SW837): 19.4

Compound: C#Cc1cccc(Nc2ncnc3cc(OCCOC)c(OCCOC)cc23)c1 [Erlotinib] + C=C(F)C(=O)N1CCN(c2nc(OC[C@@H]3CCCN3C)nc3c2CCN(c2cccc4cccc(Cl)c24)C3)C[C@@H]1CC#N [adagrasib]
- combination cScore with adagrasib (NCI-H2122): 14.9
- combination cScore with adagrasib (NCI-H358): 10
- combination cScore with adagrasib (SW837): 19.4

Compound: O=C(O)CNC(=O)c1c(O)c2ccccc2n(Cc2ccccc2)c1=O [IOX2] + C=C(F)C(=O)N1CCN(c2nc(OC[C@@H]3CCCN3C)nc3c2CCN(c2cccc4cccc(Cl)c24)C3)C[C@@H]1CC#N [adagrasib]
- combination cScore with adagrasib (NCI-H2122): 25.2
- combination cScore with adagrasib (NCI-H358): 0.22
- combination cScore with adagrasib (SW837): 13.4

Compound: CCN1CCN(Cc2ccc(Nc3ncc(F)c(-c4cc(F)c5nc(C)n(C(C)C)c5c4)n3)nc2)CC1 [Abemaciclib] + C=C(F)C(=O)N1CCN(c2nc(OC[C@@H]3CCCN3C)nc3c2CCN(c2cccc4cccc(Cl)c24)C3)C[C@@H]1CC#N [adagrasib]
- combination cScore with adagrasib (NCI-H2122): 5.55
- combination cScore with adagrasib (NCI-H358): 4.46
- combination cScore with adagrasib (SW837): 12.5

Compound: O=C(/C=C/N1C[C@H]2C[C@@H]1CN2c1ccccn1)c1ccccc1O [PFI-3] + C=C(F)C(=O)N1CCN(c2nc(OC[C@@H]3CCCN3C)nc3c2CCN(c2cccc4cccc(Cl)c24)C3)C[C@@H]1CC#N [adagrasib]
- combination cScore with adagrasib (NCI-H2122): 15.8
- combination cScore with adagrasib (NCI-H358): -3.19
- combination cScore with adagrasib (SW837): -2.21

Compound: CC1(N)CCN(c2cnc(-c3cccc(Cl)c3Cl)c(N)n2)CC1 [SHP099] + C=C(F)C(=O)N1CCN(c2nc(OC[C@@H]3CCCN3C)nc3c2CCN(c2cccc4cccc(Cl)c24)C3)C[C@@H]1CC#N [adagrasib]
- combination cScore with adagrasib (NCI-H2122): 19.4
- combination cScore with adagrasib (NCI-H358): 1.39
- combination cScore with adagrasib (SW837): 14.3

Compound: CCN(CCCOc1ccc2c(Nc3cc(CC(=O)Nc4cccc(F)c4)[nH]n3)ncnc2c1)CCOP(=O)(O)O [AZD-1152] + C=C(F)C(=O)N1CCN(c2nc(OC[C@@H]3CCCN3C)nc3c2CCN(c2cccc4cccc(Cl)c24)C3)C[C@@H]1CC#N [adagrasib]
- combination cScore with adagrasib (NCI-H2122): 12.7
- combination cScore with adagrasib (NCI-H358): 2.1
- combination cScore with adagrasib (SW837): 4.03

Compound: CC(C)N(CCCNC(=O)Nc1ccc(C(C)(C)C)cc1)C[C@H]1O[C@@H](n2ccc3c(N)ncnc32)[C@H](O)[C@@H]1O + C=C(F)C(=O)N1CCN(c2nc(OC[C@@H]3CCCN3C)nc3c2CCN(c2cccc4cccc(Cl)c24)C3)C[C@@H]1CC#N [adagrasib]
- combination cScore with adagrasib (NCI-H2122): 19.1
- combination cScore with adagrasib (NCI-H358): 9.87
- combination cScore with adagrasib (SW837): 2.74

Compound: CC(=O)c1c(C)c2cnc(Nc3ccc(N4CCNCC4)cn3)nc2n(C2CCCC2)c1=O [Palbociclib] + C=C(F)C(=O)N1CCN(c2nc(OC[C@@H]3CCCN3C)nc3c2CCN(c2cccc4cccc(Cl)c24)C3)C[C@@H]1CC#N [adagrasib]
- combination cScore with adagrasib (NCI-H2122): 8.54
- combination cScore with adagrasib (NCI-H358): 2.62
- combination cScore with adagrasib (SW837): 19.2

Compound: Cc1c(-c2c(-c3ccc(F)o3)sc3ncnc(O[C@H](Cc4ccccc4OCc4ccnn4CC(F)(F)F)C(=O)O)c23)ccc(OCCN2CCN(C)CC2)c1Cl + C=C(F)C(=O)N1CCN(c2nc(OC[C@@H]3CCCN3C)nc3c2CCN(c2cccc4cccc(Cl)c24)C3)C[C@@H]1CC#N [adagrasib]
- combination cScore with adagrasib (NCI-H2122): 8.13
- combination cScore with adagrasib (NCI-H358): 5.46
- combination cScore with adagrasib (SW837): 4.73

Compound: CC[C@H](Nc1ncnc2[nH]cnc12)c1nc2cccc(F)c2c(=O)n1-c1ccccc1 [Cal-101] + C=C(F)C(=O)N1CCN(c2nc(OC[C@@H]3CCCN3C)nc3c2CCN(c2cccc4cccc(Cl)c24)C3)C[C@@H]1CC#N [adagrasib]
- combination cScore with adagrasib (NCI-H2122): 14.1
- combination cScore with adagrasib (NCI-H358): 5.08
- combination cScore with adagrasib (SW837): 1.53

Compound: C[C@@H]1CN(CC(=O)Nc2ccc3c(c2)Cc2cccc(-c4cc(=O)cc(N5CCOCC5)o4)c2S3)C[C@H](C)O1 + C=C(F)C(=O)N1CCN(c2nc(OC[C@@H]3CCCN3C)nc3c2CCN(c2cccc4cccc(Cl)c24)C3)C[C@@H]1CC#N [adagrasib]
- combination cScore with adagrasib (NCI-H2122): 18.9
- combination cScore with adagrasib (NCI-H358): 6.62
- combination cScore with adagrasib (SW837): 3.63

Compound: Cc1cc(C)c(CNC(=O)c2cc(-c3ccc(N4CCNCC4)nc3)cc3c2c(C)cn3C2CCCC2)c(=O)[nH]1 + C=C(F)C(=O)N1CCN(c2nc(OC[C@@H]3CCCN3C)nc3c2CCN(c2cccc4cccc(Cl)c24)C3)C[C@@H]1CC#N [adagrasib]
- combination cScore with adagrasib (NCI-H2122): 20.3
- combination cScore with adagrasib (NCI-H358): 5.44
- combination cScore with adagrasib (SW837): -0.2

Compound: CCc1c2c(nc3ccc(O)cc13)-c1cc3c(c(=O)n1C2)COC(=O)[C@]3(O)CC [SN-38] + C=C(F)C(=O)N1CCN(c2nc(OC[C@@H]3CCCN3C)nc3c2CCN(c2cccc4cccc(Cl)c24)C3)C[C@@H]1CC#N [adagrasib]
- combination cScore with adagrasib (NCI-H2122): 6.93
- combination cScore with adagrasib (NCI-H358): -1.51
- combination cScore with adagrasib (SW837): -1.14

Compound: C[C@@H]1OCC2(CCN(c3cnc(Sc4ccnc(N)c4Cl)c(N)n3)CC2)[C@@H]1N [TNO155] + C=C(F)C(=O)N1CCN(c2nc(OC[C@@H]3CCCN3C)nc3c2CCN(c2cccc4cccc(Cl)c24)C3)C[C@@H]1CC#N [adagrasib]
- combination cScore with adagrasib (NCI-H2122): 49
- combination cScore with adagrasib (NCI-H358): 9.32
- combination cScore with adagrasib (SW837): 31

Compound: COc1cc2ncnc(Nc3ccc(F)c(Cl)c3)c2cc1OCCCN1CCOCC1 [Gefitinib] + C=C(F)C(=O)N1CCN(c2nc(OC[C@@H]3CCCN3C)nc3c2CCN(c2cccc4cccc(Cl)c24)C3)C[C@@H]1CC#N [adagrasib]
- combination cScore with adagrasib (NCI-H2122): 15.8
- combination cScore with adagrasib (NCI-H358): 12.5
- combination cScore with adagrasib (SW837): 23.8

Compound: C[C@H](Nc1ccc2c(c1)OCCn1cc(N3C(=O)OC[C@H]3C(F)F)nc1-2)C(N)=O [GDC-0077] + C=C(F)C(=O)N1CCN(c2nc(OC[C@@H]3CCCN3C)nc3c2CCN(c2cccc4cccc(Cl)c24)C3)C[C@@H]1CC#N [adagrasib]
- combination cScore with adagrasib (NCI-H2122): 22.2
- combination cScore with adagrasib (NCI-H358): 5.51
- combination cScore with adagrasib (SW837): 5.13

Compound: COc1cccc2c1C(=O)c1c(O)c3c(c(O)c1C2=O)C[C@@](O)(C(C)=O)C[C@@H]3O[C@H]1C[C@H](N)[C@H](O)[C@H](C)O1 [Daunorubicin] + C=C(F)C(=O)N1CCN(c2nc(OC[C@@H]3CCCN3C)nc3c2CCN(c2cccc4cccc(Cl)c24)C3)C[C@@H]1CC#N [adagrasib]
- combination cScore with adagrasib (NCI-H2122): 4.15
- combination cScore with adagrasib (NCI-H358): -0.64
- combination cScore with adagrasib (SW837): 4.77
